# Reference: PMC4503722, “Novel Phenotypic Outcomes Identified for a Public Collection of Approved Drugs from a Publicly Accessible Panel of Assays” (PLoS ONE, 2015)
# *1 amine or outer side, *2 acyl side, *3 side chain or, on linkers, in order; H or OH if unused. Where a SMILES comes first, the peptide text is derived from it. Bridges are numbered along the chain shown (N, C = ends). Roman numbers before positions name the chains, in order. [ ]: non-standard residue; d: D form. Actinocin(9to1) = Cc1c2oc3c(C)ccc(C(=O)[*:1])c3nc-2c(C(=O)[*:2])c(N)c1=O; NMeV = CN[C@H](C(=O)O)C(C)C; Sar = CNCC(=O)O
# How the values were obtained:
# [1] = tested on: endothelial tube formation in co-cultures of ECFCs and ADSCs treated with VEGF; experiment: cells; format: cell-based, human
# [2] = tested on: nuclear β-catenin in C2C12 cells; experiment: cells; format: cell-based; settings: concentration response; for WntCondMedia_bCatenin C2C12 IC50/EC50: assay number 5
# [3] = tested on: alkaline phosphatase (ALP) activity in C2C12 cells; format: cell-based; settings: concentration response; for WntCondMedia_Alk Phos C2C12 IC50/EC50: assay number 6
# [4] = tested on: ECFC/ADSC co-culture cell nuclei number
# HeLa cells = experiment: cells; format: cell-based; settings: for Hela CellCycMod PI 2N IC50/EC50: assay number 14; for Hela CellCycMod PI 4N IC50/EC50: assay number 16; for Hela CellCycMod PI MI IC50/EC50: assay number 17; for Hela CellCycMod PI Cell Number IC50/EC50: assay number 18
# INS-1E cells = experiment: cells; format: cell-based, rat; settings: 5 mM glucose; for 5mMGluc_INS1E SecretionMod IC50/EC50: assay number 8;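 for all read-outs here: secreted insulin quantified by homogeneous immunoassay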
# NCI-H716 cells = experiment: cells; format: cell-based, Human; settings: for hNCI-H716 GLP1 Secretion IC50/EC50: assay number 12
# STC-1 cell line = format: cell-based, mouse; settings: for mSTC-1 GLP1 Secretion IC50/EC50: assay number 13
# hp70S6K1 (RPS6KB1) = target: T1, hp70S6K1 (RPS6KB1) (Homo sapiens, UniProt P23443); experiment: Cerep LANCE kinase assay hp70S6K1 (S1 assay 31); format: biochemical; settings: assay number 31
# T1 construct: purchased Cerep (LANCE kinase assay platform, contract assay)
# T1 sequence (P23443 whole entry): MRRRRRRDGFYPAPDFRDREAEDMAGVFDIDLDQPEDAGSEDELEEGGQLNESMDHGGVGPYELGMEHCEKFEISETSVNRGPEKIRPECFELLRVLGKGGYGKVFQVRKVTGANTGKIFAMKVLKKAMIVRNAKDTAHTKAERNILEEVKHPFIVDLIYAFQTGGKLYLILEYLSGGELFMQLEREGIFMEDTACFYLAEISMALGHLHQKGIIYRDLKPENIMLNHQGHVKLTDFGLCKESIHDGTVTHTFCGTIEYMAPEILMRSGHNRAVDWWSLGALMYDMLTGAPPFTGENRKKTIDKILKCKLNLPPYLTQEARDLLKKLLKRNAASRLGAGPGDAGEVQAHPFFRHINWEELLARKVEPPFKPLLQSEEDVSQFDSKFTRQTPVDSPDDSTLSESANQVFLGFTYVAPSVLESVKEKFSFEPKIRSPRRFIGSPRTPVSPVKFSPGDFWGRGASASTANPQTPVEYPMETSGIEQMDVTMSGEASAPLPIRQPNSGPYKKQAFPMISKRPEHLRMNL
# hKDR = target: T2, hKDR (Homo sapiens, UniProt P35968); experiment: Cerep LANCE kinase assay hKDR (S1 assay 32); format: biochemical; settings: assay number 32
# T2 construct: purchased Cerep (LANCE kinase assay platform, contract assay)
# T2 sequence (P35968 20-1356): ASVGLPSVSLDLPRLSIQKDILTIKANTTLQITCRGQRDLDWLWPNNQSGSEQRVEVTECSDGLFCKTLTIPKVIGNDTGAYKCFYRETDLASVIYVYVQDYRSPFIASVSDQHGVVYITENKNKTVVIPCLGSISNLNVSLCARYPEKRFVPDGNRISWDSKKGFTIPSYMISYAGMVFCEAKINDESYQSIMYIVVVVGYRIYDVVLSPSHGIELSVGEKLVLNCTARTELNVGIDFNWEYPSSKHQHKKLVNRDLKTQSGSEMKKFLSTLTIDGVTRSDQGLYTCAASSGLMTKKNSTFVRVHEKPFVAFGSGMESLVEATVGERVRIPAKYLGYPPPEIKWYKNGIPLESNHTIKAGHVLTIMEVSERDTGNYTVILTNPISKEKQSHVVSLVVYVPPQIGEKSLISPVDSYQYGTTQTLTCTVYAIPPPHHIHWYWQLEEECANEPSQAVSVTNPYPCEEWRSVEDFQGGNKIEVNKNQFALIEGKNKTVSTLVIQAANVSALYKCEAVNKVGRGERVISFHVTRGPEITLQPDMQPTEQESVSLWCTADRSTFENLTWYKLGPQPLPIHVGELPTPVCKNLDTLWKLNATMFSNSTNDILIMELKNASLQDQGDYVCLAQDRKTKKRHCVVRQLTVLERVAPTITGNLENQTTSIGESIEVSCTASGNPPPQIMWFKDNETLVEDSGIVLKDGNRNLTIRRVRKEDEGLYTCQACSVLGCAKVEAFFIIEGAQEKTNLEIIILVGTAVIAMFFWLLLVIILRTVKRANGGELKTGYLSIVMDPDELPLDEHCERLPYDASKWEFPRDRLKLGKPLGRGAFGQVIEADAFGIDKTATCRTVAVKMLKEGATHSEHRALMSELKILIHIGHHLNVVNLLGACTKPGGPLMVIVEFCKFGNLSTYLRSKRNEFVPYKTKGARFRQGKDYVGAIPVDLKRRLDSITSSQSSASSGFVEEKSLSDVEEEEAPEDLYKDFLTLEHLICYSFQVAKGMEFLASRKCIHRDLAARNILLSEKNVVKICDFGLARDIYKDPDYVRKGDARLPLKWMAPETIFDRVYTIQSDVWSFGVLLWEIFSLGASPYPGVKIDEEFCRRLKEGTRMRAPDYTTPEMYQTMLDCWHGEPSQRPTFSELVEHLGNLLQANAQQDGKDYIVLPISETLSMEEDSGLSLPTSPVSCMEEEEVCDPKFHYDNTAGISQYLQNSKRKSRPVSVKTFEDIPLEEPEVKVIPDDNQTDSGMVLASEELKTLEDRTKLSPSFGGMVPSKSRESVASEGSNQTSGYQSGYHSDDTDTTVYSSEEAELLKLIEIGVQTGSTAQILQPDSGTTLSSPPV
# hJAK2 = target: T3, hJAK2 (Homo sapiens, UniProt O60674); experiment: Cerep LANCE kinase assay hJAK2 (S1 assay 33); format: biochemical; settings: assay number 33
# T3 construct: purchased Cerep (LANCE kinase assay platform, contract assay)
# T3 sequence (O60674 whole entry): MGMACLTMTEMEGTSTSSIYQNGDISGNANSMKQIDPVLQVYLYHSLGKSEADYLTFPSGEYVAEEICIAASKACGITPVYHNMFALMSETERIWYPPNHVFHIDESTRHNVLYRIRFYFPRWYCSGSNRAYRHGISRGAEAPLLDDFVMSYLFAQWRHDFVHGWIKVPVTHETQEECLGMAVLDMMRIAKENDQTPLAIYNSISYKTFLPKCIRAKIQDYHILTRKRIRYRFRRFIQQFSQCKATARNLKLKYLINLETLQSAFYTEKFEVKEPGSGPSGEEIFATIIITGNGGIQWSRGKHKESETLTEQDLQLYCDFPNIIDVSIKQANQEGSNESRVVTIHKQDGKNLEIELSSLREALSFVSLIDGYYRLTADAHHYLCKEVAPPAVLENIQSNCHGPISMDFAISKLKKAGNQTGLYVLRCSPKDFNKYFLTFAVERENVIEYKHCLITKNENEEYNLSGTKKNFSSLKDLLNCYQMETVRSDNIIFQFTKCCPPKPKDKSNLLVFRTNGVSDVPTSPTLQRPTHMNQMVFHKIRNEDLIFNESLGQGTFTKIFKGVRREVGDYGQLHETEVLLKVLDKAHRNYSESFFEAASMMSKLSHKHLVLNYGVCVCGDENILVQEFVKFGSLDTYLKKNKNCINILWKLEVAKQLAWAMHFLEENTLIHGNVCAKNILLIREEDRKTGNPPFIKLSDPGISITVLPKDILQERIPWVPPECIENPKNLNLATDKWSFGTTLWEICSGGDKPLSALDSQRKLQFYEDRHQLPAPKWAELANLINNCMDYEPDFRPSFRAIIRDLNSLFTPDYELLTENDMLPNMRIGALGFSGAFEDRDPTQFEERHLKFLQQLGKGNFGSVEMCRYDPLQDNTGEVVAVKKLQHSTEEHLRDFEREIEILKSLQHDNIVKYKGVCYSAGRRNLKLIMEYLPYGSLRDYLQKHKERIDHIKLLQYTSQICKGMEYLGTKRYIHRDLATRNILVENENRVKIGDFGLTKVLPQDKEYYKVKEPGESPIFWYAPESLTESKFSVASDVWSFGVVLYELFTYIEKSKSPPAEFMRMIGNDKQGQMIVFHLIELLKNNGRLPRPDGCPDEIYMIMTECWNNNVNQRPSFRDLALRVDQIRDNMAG
# hGSK3b = target: T4, hGSK3b (Homo sapiens, UniProt P49841); experiment: Cerep LANCE kinase assay hGSK3b (S1 assay 34); format: biochemical; settings: assay number 34
# T4 construct: purchased Cerep (LANCE kinase assay platform, contract assay)
# T4 sequence (P49841 whole entry): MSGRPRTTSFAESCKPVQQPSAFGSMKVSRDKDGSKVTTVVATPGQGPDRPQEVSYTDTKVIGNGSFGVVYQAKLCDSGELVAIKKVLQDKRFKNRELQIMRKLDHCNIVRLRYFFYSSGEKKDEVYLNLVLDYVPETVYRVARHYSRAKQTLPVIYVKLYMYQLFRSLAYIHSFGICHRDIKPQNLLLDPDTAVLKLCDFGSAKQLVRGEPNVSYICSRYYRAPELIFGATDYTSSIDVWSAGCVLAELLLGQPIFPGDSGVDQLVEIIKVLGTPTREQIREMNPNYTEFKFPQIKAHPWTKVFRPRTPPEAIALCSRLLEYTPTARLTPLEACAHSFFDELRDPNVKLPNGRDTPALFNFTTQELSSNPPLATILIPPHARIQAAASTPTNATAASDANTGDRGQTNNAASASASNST
# hFLT3 = target: T5, hFLT3 (Homo sapiens, UniProt P36888); experiment: Cerep LANCE kinase assay hFLT3 (S1 assay 35); format: biochemical; settings: assay number 35
# T5 construct: purchased Cerep (LANCE kinase assay platform, contract assay)
# T5 sequence (P36888 27-993): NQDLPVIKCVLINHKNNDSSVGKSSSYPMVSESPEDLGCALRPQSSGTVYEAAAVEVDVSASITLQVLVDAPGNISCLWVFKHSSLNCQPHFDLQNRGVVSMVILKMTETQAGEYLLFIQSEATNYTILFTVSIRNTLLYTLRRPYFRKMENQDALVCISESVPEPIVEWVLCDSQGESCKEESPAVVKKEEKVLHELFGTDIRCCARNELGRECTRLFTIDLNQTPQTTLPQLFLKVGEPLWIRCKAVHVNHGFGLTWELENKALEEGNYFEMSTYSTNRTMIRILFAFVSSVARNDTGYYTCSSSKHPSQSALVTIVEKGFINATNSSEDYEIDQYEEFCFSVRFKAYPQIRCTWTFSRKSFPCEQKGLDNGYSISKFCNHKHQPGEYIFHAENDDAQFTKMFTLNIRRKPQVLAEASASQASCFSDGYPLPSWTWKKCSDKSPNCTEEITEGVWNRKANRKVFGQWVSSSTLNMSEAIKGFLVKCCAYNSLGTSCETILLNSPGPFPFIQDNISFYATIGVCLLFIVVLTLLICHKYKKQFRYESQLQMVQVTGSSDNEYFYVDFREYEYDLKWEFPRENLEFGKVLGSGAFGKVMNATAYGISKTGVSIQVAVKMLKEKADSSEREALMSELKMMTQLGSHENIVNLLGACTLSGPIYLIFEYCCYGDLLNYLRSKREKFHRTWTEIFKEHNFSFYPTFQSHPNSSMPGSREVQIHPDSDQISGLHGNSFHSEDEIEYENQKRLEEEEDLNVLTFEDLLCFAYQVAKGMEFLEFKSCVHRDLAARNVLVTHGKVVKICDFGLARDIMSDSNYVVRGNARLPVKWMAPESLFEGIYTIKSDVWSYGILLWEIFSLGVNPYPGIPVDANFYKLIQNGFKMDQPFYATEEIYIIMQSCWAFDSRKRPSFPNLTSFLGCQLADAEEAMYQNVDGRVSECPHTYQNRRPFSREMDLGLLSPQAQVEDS
compound,measurement,setting,value
Clc1cc(Cl)c(OCC#CI)cc1Cl [NCGC00181134-02],VEGF_ADSC\ECFC Angio CD31 TubeArea IC50/EC50,[1],> 10 µM
same,WntCondMedia_bCatenin C2C12 IC50/EC50,[2],> 20 µM
same,WntCondMedia_Alk Phos C2C12 IC50/EC50,[3],> 20 µM
same,VEGF_ADSC\ECFC Angio Hoechst NucArea IC50/EC50,[4],> 10 µM
CCCCc1ccc2nc(NC(=O)OC)[nH]c2c1 [NCGC00016706-07],"IC50/EC50, VEGF_ADSC\ECFC Angio CD31 TubeArea (assay number 2)",[1],0.053 µM
same,"IC50/EC50, WntCondMedia_bCatenin C2C12 (assay number 5)",[2],0.0336 µM
same,"IC50/EC50, WntCondMedia_Alk Phos C2C12 (assay number 6)",[3],0.0682 µM
same,"IC50/EC50, Hela CellCycMod PI 2N (assay number 14)",HeLa cells; 2N,0.0104 µM
same,"IC50/EC50, Hela CellCycMod PI 4N (assay number 16)",HeLa cells; 4N,0.01062 µM
same,"IC50/EC50, Hela CellCycMod PI Cell Number (assay number 18)",HeLa cells; Cell Number,0.00566 µM
same,"IC50/EC50, Hela CellCycMod PI MI (assay number 17)",HeLa cells; MI,0.00717 µM
same,"IC50/EC50, Hela CellCycMod PI S Phase (assay number 15)",HeLa cells; S Phase,> 10 µM
same,"IC50/EC50, VEGF_ADSC\ECFC Angio Hoechst NucArea (assay number 3)",[4],> 10 µM
O.O.O.O.O=C1OC2(c3cc(Br)c([O-])cc3Oc3c2cc(Br)c([O-])[c]3[Hg])c2ccccc21.[Na+].[Na+] (centres unmarked) [NCGC00262588-02],WntCondMedia_bCatenin C2C12 IC50/EC50,[2],16.8578 µM
same,WntCondMedia_Alk Phos C2C12 IC50/EC50,[3],> 20 µM
Cc1cc(CC(C)CC(C)(C)C)n(O)c(=O)c1 (centres unmarked) [NCGC00167586-03],WntCondMedia_bCatenin C2C12 IC50/EC50,[2],0.5913 µM
same,WntCondMedia_Alk Phos C2C12 IC50/EC50,[3],> 20 µM
same,Hela CellCycMod PI 2N IC50/EC50,HeLa cells; 2N,> 10 µM
same,Hela CellCycMod PI S Phase IC50/EC50,"HeLa cells; assay number 15, S phase",> 10 µM
same,Hela CellCycMod PI 4N IC50/EC50,HeLa cells; 4N,> 10 µM
same,Hela CellCycMod PI MI IC50/EC50,HeLa cells; MI,> 10 µM
same,Hela CellCycMod PI Cell Number IC50/EC50,HeLa cells,0.1332 µM
"Cc1c2oc3c(C)ccc(C(=O)N[C@@H]4C(=O)N[C@H](C(C)C)C(=O)N5CCC[C@H]5C(=O)N(C)CC(=O)N(C)[C@@H](C(C)C)C(=O)O[C@@H]4C)c3nc-2c(C(=O)N[C@@H]2C(=O)N[C@H](C(C)C)C(=O)N3CCC[C@H]3C(=O)N(C)CC(=O)N(C)[C@@H](C(C)C)C(=O)O[C@@H]2C)c(N)c1=O [NCGC00271789-02] (I: T[dV]P[Sar][NMeV] / II: T[dV]P[Sar][NMeV]; ester I:1-I:C, II:1-II:C; linker I:N-II:N via Actinocin(9to1))",VEGF_ADSC\ECFC Angio CD31 TubeArea IC50/EC50,[1],0.001 µM
same,WntCondMedia_bCatenin C2C12 IC50/EC50,[2],0.037 µM
same,WntCondMedia_Alk Phos C2C12 IC50/EC50,[3],0.0015 µM
same,VEGF_ADSC\ECFC Angio Hoechst NucArea IC50/EC50,[4],0.04031 µM
CCCCCCCCCCCCCCCCCCNC(=O)OC1CCN(C(=O)OC[C@H](COC(=O)N(Cc2cccc[n+]2CC)C(=O)c2ccccc2OC)OC)CC1.[Cl-] [NCGC00183020-01],VEGF_ADSC\ECFC Angio CD31 TubeArea IC50/EC50,[1],1.4957 µM
same,5mMGluc_INS1E SecretionMod IC50/EC50,INS-1E cells,21.7337 µM
same,hNCI-H716 GLP1 Secretion IC50/EC50,NCI-H716 cells,9.522 µM
same,mSTC-1 GLP1 Secretion IC50/EC50,STC-1 cell line,13.8183 µM
same,Hela CellCycMod PI 2N IC50/EC50,HeLa cells; 2N,> 10 µM
same,Hela CellCycMod PI 4N IC50/EC50,HeLa cells; 4N,> 10 µM
same,Hela CellCycMod PI MI IC50/EC50,HeLa cells; MI,> 10 µM
same,Hela CellCycMod PI Cell Number IC50/EC50,HeLa cells,6.1389 µM
same,hp70S6K1 LANCE IC50/EC50,hp70S6K1 (RPS6KB1),> 20 µM
same,hKDR LANCE IC50/EC50,hKDR,> 20 µM
same,hJAK2 LANCE IC50/EC50,hJAK2,> 20 µM
same,hGSK3b LANCE IC50/EC50,hGSK3b,> 20 µM
same,hFLT3 LANCE IC50/EC50,hFLT3,> 20 µM
same,VEGF_ADSC\ECFC Angio Hoechst NucArea IC50/EC50,[4],> 10 µM
CN[C@@H]1C[C@@H](c2ccc(Cl)c(Cl)c2)c2ccccc21 [NCGC00025223-04],VEGF_ADSC\ECFC Angio CD31 TubeArea IC50/EC50,[1],> 10 µM
same,WntCondMedia_bCatenin C2C12 IC50/EC50,[2],> 20 µM
same,WntCondMedia_Alk Phos C2C12 IC50/EC50,[3],> 20 µM
same,VEGF_ADSC\ECFC Angio Hoechst NucArea IC50/EC50,[4],> 10 µM
CCCCCN=C(N)N/N=C/c1c[nH]c2ccc(OC)cc12 [NCGC00095192-05],VEGF_ADSC\ECFC Angio CD31 TubeArea IC50/EC50,[1],3.1318 µM
same,5mMGluc_INS1E SecretionMod IC50/EC50,INS-1E cells,16.8442 µM
same,hNCI-H716 GLP1 Secretion IC50/EC50,NCI-H716 cells,10.8586 µM
same,mSTC-1 GLP1 Secretion IC50/EC50,STC-1 cell line,> 40 µM
same,VEGF_ADSC\ECFC Angio Hoechst NucArea IC50/EC50,[4],7.175 µM
CCCCCCCCCCCCCCC[C@H](O)[C@@H](N)CO [NCGC00015362-05],WntCondMedia_bCatenin C2C12 IC50/EC50,[2],> 20 µM
same,WntCondMedia_Alk Phos C2C12 IC50/EC50,[3],> 20 µM
Cc1cc(O)c2c(O)c3c(O)cccc3cc2c1 [NCGC00181774-02],"IC50/EC50, VEGF_ADSC\ECFC Angio CD31 TubeArea (assay number 2)",[1],> 10 µM
same,"IC50/EC50, 5mMGluc_INS1E SecretionMod (assay number 8)",INS-1E cells,> 33.33 µM
same,"IC50/EC50, hNCI-H716 GLP1 Secretion (assay number 12)",NCI-H716 cells; concentration response,> 20 µM
same,"IC50/EC50, mSTC-1 GLP1 Secretion (assay number 13)",STC-1 cell line; concentration response,11.3101 µM
same,"IC50/EC50, VEGF_ADSC\ECFC Angio Hoechst NucArea (assay number 3)",[4],> 10 µM
